# Measurements as given in patent publication US8329454B2, “Device for detecting a cholinesterase-inhibiting substance comprising a hydrophilic photo-crosslinkable resin” (priority 2008, dated 2012).
# System: cholinesterase
# Test: not given
# Conditions: prior-art kit AT-10/AT-25 (Agriscreen Ticket 10/25) by NEOGEN; cited from earlier work
row,Molecule,detection limit
1,CCOP(=S)(OCC)Oc1nc(Cl)c(Cl)cc1Cl [chlorpyrifos],~0.7 ppm
2,COP(=S)(OC)Oc1nc(Cl)c(Cl)cc1Cl [chlorpyrifos-methyl],~1.0 ppm
3,CNC(=O)Oc1cccc2ccccc12 [carbaryl],around 7.0 ppm
4,CCOP(=S)(OCC)Oc1cc(C)nc(C(C)C)n1 [diazinone],~2.0 ppm

# System: cholinesterase
# Test: Visual detection with the cholinesterase detection device after on-column NBS oxidation (Example 1)
# Conditions: Example 1: 10 mL aqueous sample, adsorbed on column, 1% NBS oxidation to oxon form, 5 min inhibition, indoxyl acetate 5 min, no coloration
row,Molecule,detected at a concentration level [ppb]
1,CCOP(=S)(OCC)Oc1cc(C)nc(C(C)C)n1 [diazinone],0.1

# Same assay, conditions: Table 1, tested in the same manner as Example 1 (NBS oxidation)
row,Molecule,Detection Level (ppb)
1,COP(=O)(OC)O/C(=C\Cl)c1ccc(Cl)cc1Cl [dimethylvinphos(Z)],100
2,CCN(CC)c1nc(C)cc(OP(=S)(OC)OC)n1 [pyrimiphos-methyl],20
3,CCOP(=S)(OCC)SCSCC [phorate],80
4,CNC(=O)/C=C(\C)OP(=O)(OC)OC [monocrotophos],100
5,COP1(=S)OCc2ccccc2O1 (centres unmarked) [salithion],100
6,CCOP(=S)(OCC)Oc1ccc(Cl)cc1Cl [dichlofenthion],100
7,CCOP(=S)(OCC)Oc1nc(Cl)c(Cl)cc1Cl [chlorpyrifos],0.2
8,etorifos,10
9,CCOP(=S)(OCC)SCn1c(=O)oc2cc(Cl)ccc21 [phosalone],6
10,CCOP(=S)(NC(C)CC)Oc1cc(C)ccc1[N+](=O)[O-] (centres unmarked) [butamifos],100
11,CCOP(=S)(OCC)Oc1cc(Cl)c(Br)cc1Cl [bromofos-ethyl],10
12,CCOP(=S)(OCC)Oc1ccc2c(C)c(Cl)c(=O)oc2c1 [coumafos],2
13,CCOP(=S)(OCC)SCSP(=S)(OCC)OCC [ethion],10
14,CCOP(=S)(OCC)Oc1cc(-c2ccccc2)on1 [isoxathion],0.2
15,COP(=S)(OC)Oc1nc(Cl)c(Cl)cc1Cl [chlorpyrifos-methyl],1
16,CCOP(=S)(OCC)Oc1ccc(=O)n(-c2ccccc2)n1 [pyridaphenthion],1
17,CCOP(=O)(OCC)O/C(=C\Cl)c1ccc(Cl)cc1Cl [chlorfenvinphos],40
18,COP(=O)(OC)O/C(=C/Cl)c1ccc(Cl)cc1Cl [dimethylvinphos(E)],100
19,CCOP(=S)(OCC)SCn1nnc2ccccc2c1=O [azinphos-ethyl],1
20,CCCOP(=O)(OCCC)Oc1ccc(SC)cc1 [propafos],1
21,CCCSP(=S)(OCC)Oc1ccc(SC)cc1 (centres unmarked) [sulprofos],20
22,CCOP(=S)(Oc1ccc([N+](=O)[O-])cc1)c1ccccc1 (centres unmarked) [EPN],40
23,COP(=S)(OC)SCn1nnc2ccccc2c1=O [azinphos-methyl],8
24,CCOP(=S)(OCC)Oc1ccc([S+](C)[O-])cc1 (centres unmarked) [fensulfothion],100
25,COP(=S)(OC)Oc1ccc([N+](=O)[O-])c(C)c1 [fenitrothion],40
26,CCOP(=S)(OCC)Oc1cnc2ccccc2n1 [quinalphos],0.1
27,CCCSP(=O)(OCC)SCCC [etoprophos],100
28,CCOP(=S)(OCC)SCSC(C)(C)C [terbufos],10
29,CCOP(=S)(OCC)Oc1ccc([N+](=O)[O-])cc1 [parathion],0.8

# System: cholinesterase
# Test: Visual detection with the cholinesterase detection device without oxidation treatment (Comparative Example 1, Example 2)
# Type: biochemical
# Conditions: Comparative Example 1: as Example 1 but no oxidation treatment (no NBS)
# Description: This is a comparative experiment for confirming the effect of oxidation treatment (NBS solution suction treatment) in Example 1. In the same manner as in Example 1, the column was made to adsorb diazinone in the sample, and then not processed for oxidation treatment (NBS solution suction treatment), diazinone was eluted from the column. The eluate was added to the detection device, and an indoxyl acetate solution was added to the device.
# The detection method was to follow the process shown in FIG. 3; however, since a carbamate agrichemical was the object to be detected, the NBS solution suction and discharge operation attained in Example 1 was omitted here.
# As a sample, prepared was 10 mL of an aqueous solution of a carbaryl (NAC) standard liquid of a carbamate agrichemical having a diluted concentration of 10 ppb; and this was sucked in the syringe with a column chip connected to the tip thereof, as shown in FIG. 2.
# The sucked solution was discharged in a beaker and again sucked, and this cycle was repeated three times whereby the sample NAC was adsorbed by the column. Subsequently, NAC was eluted from the column, and put into the device to undergo an enzyme inhibitory reaction for 5 minutes therein.
# After 5 minutes, a coloring substrate of an indoxyl acetate solution was added to the device, and underwent coloration reaction for 5 minutes.
# Other agrichemical substances were tested in the same manner as in Example 1 and Example 2, and the following results were obtained.
row,Molecule,detection level [ppm]
1,CCOP(=S)(OCC)Oc1cc(C)nc(C(C)C)n1 [diazinone],5

# Same assay, conditions: Example 2: 10 mL aqueous sample, adsorbed on column, no NBS step, 5 min inhibition, indoxyl acetate 5 min, no coloration
row,Molecule,detected at a concentration level [ppb]
1,CNC(=O)Oc1cccc2ccccc12 [carbaryl],10

# Same assay, conditions: Table 1, agrichemicals marked *, taken as tested in the same manner as Example 2 (no NBS oxidation)
row,Molecule,Detection Level (ppb)
1,CS/C(C)=N\OC(=O)N(C)SN(C)C(=O)O/N=C(\C)SC [thiodicarb],20
2,Cc1nc(N(C)C)nc(OC(=O)N(C)C)c1C [pirimicarb],8
